In the supplement of paper PMC10307832:

Key:
Test in all cases: relative viability (nuclei count vs DMSO), 5 days (fraction); higher = more cells survive
NCI-H838 = test system: NCI-H838
In short: (§1)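 Lung cancer cell lines, seeded in 1536-well plates, were treated the following day by pin tool with a single drug or with five library-drug doses (not always all listed) in √10 steps on top of a fixed anchor-drug dose. Cells were fixed and nuclei stained in one step after 5 days, and nuclei were counted. Relative viability is the nuclei count for treated wells divided by that for vehicle wells, reported as medians of duplicate plates.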

A549 = test system: A549
In short: as §1

IA-LM = test system: IA-LM
In short: as §1

NCI-H520 = test system: NCI-H520
In short: as §1

RERF-LC-KJ = test system: RERF-LC-KJ
In short: as §1

NCI-H1651 = test system: NCI-H1651
In short: as §1

EBC-1 = test system: EBC-1
In short: as §1

NCI-H650 = test system: NCI-H650
In short: as §1

NCI-H1623 = test system: NCI-H1623
In short: as §1

Calu-6 = test system: Calu-6
In short: as §1

NCI-H1944 = test system: NCI-H1944
In short: as §1

NCI-H1299 = test system: NCI-H1299
In short: as §1

NCI-H1703 = test system: NCI-H1703
In short: as §1

O=c1cc(N2CCOCC2)oc2c(-c3cccc4c3sc3ccccc34)cccc12 + COc1cc2c(Oc3ccc(NC(=O)C4(C(=O)Nc5ccc(F)cc5)CC4)cc3F)ccnc2cc1OCCCN1CCOCC1 [Foretinib] (partner 0.25 µM)
relative viability (NCI-H838; first compound 0.01 µM): 0.987
relative viability (NCI-H838; first compound 0.03162 µM): 1.02
relative viability (NCI-H838; first compound 0.1 µM): 1.12
relative viability (NCI-H838; first compound 0.3162 µM): 0.958
relative viability (NCI-H838; first compound 1 µM): 0.997
relative viability (A549; first compound 0.01 µM): 0.936
relative viability (A549; first compound 0.03162 µM): 1
relative viability (A549; first compound 0.1 µM): 0.99
relative viability (A549; first compound 0.3162 µM): 0.912
relative viability (A549; first compound 1 µM): 0.994
relative viability (IA-LM; first compound 0.01 µM): 1.1
relative viability (IA-LM; first compound 0.03162 µM): 1.11
relative viability (IA-LM; first compound 0.1 µM): 1.23
relative viability (IA-LM; first compound 0.3162 µM): 1.06
relative viability (IA-LM; first compound 1 µM): 1.25
relative viability (NCI-H520; first compound 0.01 µM): 0.896
relative viability (NCI-H520; first compound 0.03162 µM): 0.86
relative viability (NCI-H520; first compound 0.1 µM): 0.725
relative viability (NCI-H520; first compound 0.3162 µM): 0.774
relative viability (NCI-H520; first compound 1 µM): 0.734
relative viability (RERF-LC-KJ; first compound 0.01 µM): 0.831
relative viability (RERF-LC-KJ; first compound 0.03162 µM): 0.876
relative viability (RERF-LC-KJ; first compound 0.1 µM): 0.91
relative viability (RERF-LC-KJ; first compound 0.3162 µM): 0.852
relative viability (RERF-LC-KJ; first compound 1 µM): 0.846
relative viability (NCI-H1651; first compound 0.01 µM): 0.775
relative viability (NCI-H1651; first compound 0.03162 µM): 0.766
relative viability (NCI-H1651; first compound 0.1 µM): 0.958
relative viability (NCI-H1651; first compound 0.3162 µM): 0.796
relative viability (NCI-H1651; first compound 1 µM): 0.624
relative viability (EBC-1; first compound 0.01 µM): 0.0963
relative viability (EBC-1; first compound 0.03162 µM): 0.0939
relative viability (EBC-1; first compound 0.1 µM): 0.0965
relative viability (EBC-1; first compound 0.3162 µM): 0.128
relative viability (EBC-1; first compound 1 µM): 0.102
relative viability (NCI-H650; first compound 0.03162 µM): 1.07
relative viability (NCI-H650; first compound 0.1 µM): 0.918
relative viability (NCI-H650; first compound 0.3162 µM): 1.01
relative viability (NCI-H650; first compound 1 µM): 0.992
relative viability (NCI-H1623; first compound 0.01 µM): 0.84
relative viability (NCI-H1623; first compound 0.03162 µM): 0.9
relative viability (NCI-H1623; first compound 0.1 µM): 0.559
relative viability (NCI-H1623; first compound 0.3162 µM): 0.849
relative viability (NCI-H1623; first compound 1 µM): 0.862
relative viability (Calu-6; first compound 0.01 µM): 0.932
relative viability (Calu-6; first compound 0.03162 µM): 0.895
relative viability (Calu-6; first compound 0.1 µM): 0.891
relative viability (Calu-6; first compound 0.3162 µM): 0.888
relative viability (Calu-6; first compound 1 µM): 0.839
relative viability (NCI-H1944; first compound 0.01 µM): 0.876
relative viability (NCI-H1944; first compound 0.03162 µM): 0.928
relative viability (NCI-H1944; first compound 0.1 µM): 0.829
relative viability (NCI-H1944; first compound 0.3162 µM): 0.89
relative viability (NCI-H1944; first compound 1 µM): 0.821
relative viability (NCI-H1299; first compound 0.01 µM): 1.04
relative viability (NCI-H1299; first compound 0.03162 µM): 1.11
relative viability (NCI-H1299; first compound 0.1 µM): 1.08
relative viability (NCI-H1299; first compound 0.3162 µM): 1.13
relative viability (NCI-H1299; first compound 1 µM): 1.04
relative viability (NCI-H1703; first compound 0.01 µM): 0.333
relative viability (NCI-H1703; first compound 0.03162 µM): 0.314
relative viability (NCI-H1703; first compound 0.1 µM): 0.352
relative viability (NCI-H1703; first compound 0.3162 µM): 0.371
relative viability (NCI-H1703; first compound 1 µM): 0.296
